In patent US12129312B2, “Peptide compound, application thereof and composition containing same” (priority 2017, dated 2024):
Numbered stars: 1 amine (or outer) side, 2 acyl side, 3 side chain; on linkers, the order of the positions; unused ones are H or OH. Square brackets hold non-standard residues; d marks the D form. Peptide text beside a SMILES is read from it. * marks the point of attachment. Phenylacetyl(4-Ph) = O=C(Cc1ccc(-c2ccccc2)cc1)*; PEG8 = NCCOCCOCCOCCOCCOCCOCCOCCOCCC(=O)O; X6 = CCCN([C@@H](CC(C)C)C(=O)[*:2])[*:1]; Benzoyl(2,3-diOH) = O=C(c1cccc(O)c1O)*; 1Nal = N[C@@H](Cc1cccc2ccccc12)C(=O)O; 2Nal = N[C@@H](Cc1ccc2ccccc2c1)C(=O)O; dNMeY = CN[C@H](Cc1ccc(O)cc1)C(=O)O; Hydrocinnamoyl = O=C(CCc1ccccc1)*; NEtLeu = CCN[C@@H](CC(C)C)C(=O)O; Tic = O=C(O)[C@@H]1Cc2ccccc2CN1; dTic = O=C(O)[C@H]1Cc2ccccc2CN1; Gly(N-CH2CH2OH) = O=C(O)CNCCO; NMeL = CN[C@@H](CC(C)C)C(=O)O; Lauroyl = CCCCCCCCCCCC(=O)*; d(hSer) = N[C@H](CCO)C(=O)O; NMeS = CN[C@@H](CO)C(=O)O; βAla = NCCC(=O)O

These compounds were tested against T1, human Chemokine like receptor 1 (Homo sapiens, UniProt Q99788) (assay: Activation of Tango CMKLR1-bla U2OS cells (beta-lactamase FRET reporter)). Conditions: not given.
T1 construct: host or cells: U2OS (Tango CMKLR1-bla U2OS)
T1 sequence (Q99788 1-373): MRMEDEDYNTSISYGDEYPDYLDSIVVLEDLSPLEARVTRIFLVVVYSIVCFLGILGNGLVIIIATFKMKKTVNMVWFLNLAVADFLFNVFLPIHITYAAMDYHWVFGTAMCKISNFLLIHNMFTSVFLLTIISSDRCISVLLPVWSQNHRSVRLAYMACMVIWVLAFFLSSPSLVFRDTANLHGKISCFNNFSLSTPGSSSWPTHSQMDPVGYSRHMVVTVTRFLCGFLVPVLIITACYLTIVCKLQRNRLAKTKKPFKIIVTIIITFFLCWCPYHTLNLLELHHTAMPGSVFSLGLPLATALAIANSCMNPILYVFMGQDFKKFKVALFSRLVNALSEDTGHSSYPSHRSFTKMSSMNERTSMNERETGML
Format: cell-based
Description: The polypeptide sequences described above are the polypeptide sequences disclosed in the patent JP2010-229093A of BANYU PHARMA CO LTD: (D-Tyr)-Phe-Leu-Pro-(D-Ser)-Gln-Phe-(D-Ala)-Tic-Ser was used as a positive control (SEQ ID NO: 102).
The activation of the compound on Tango™ CMKLR1-bla U2OS cells (Invitrogen Cat. nos. K1551) was tested.
The activation of each compound in the above experiments on Tango™ CMKLR1-bla U2OS cells was determined as follows:
Day 1: Cell Seeding on Plate
2. The medium was removed, and the cells were washed with DPBS twice, followed by addition of 3 mL of 0.05% trypsin, and placed in a 37° C., 5% CO2 incubator (Thermo Fisher, Waltham, Massachusetts, USA) for 3-5 minutes. After the cells were rounded, 3-5 mL of medium (medium formula: DMEM 90%, Dialyzed FBS 10%, NEAA 0.1 mM, HEPES (pH 7.3) 25 mM, Penicillin 100 U/mL, Streptomycin 100 μg/mL) was added to terminate digestion.
2. The digested cells were transferred to a 15 mL centrifuge tube (430790, Corning), centrifuged at 1000 rpm for 5 minutes (5810R, Eppendorf, Hamburg, Germany), and the supernatant was discarded.
3. 7 mL of medium (DMEM+10% FBS) was added, blowed into a single cell suspension, counted by a cell counter, and adjusted the cell suspension to a desired cell density of 250,000/mL with the medium.
4. The cell suspension was seeded into a 384-well cell plate (Corning 3712) in 40 μL/well to make the number of cells 10000 cells/well, and 32 μL of medium was added to the blank control.
5. The incubation was performed overnight at 37° C. under 5% CO2.
Day 2: Dosing and Testing
1. Preparation of 200× Compound Plate
1.1 The test compound was formulated into a 10 mM working solution in DMSO.
1.2 45 μL of 10 mM test compound was added to the 2nd column of rows A to P in the Echo-384 well plate. The compound was subjected to a 3-fold dilution with Precision (30 μL of DMSO was added to the 3rd to 11th columns; 15 μL of the drug solution was pipetted from the 2nd column to the 3rd column, blown and evenly mixed; then 15 μL of the drug solution was pipetted from the 3rd column to the 4th column, blown and evenly mixed; the drugs was subjected to a 3-fold dilution to obtain 10 concentrations in total). The 1st and 12th columns of the Echo-384 well plate were supplemented with 30 μL of DMSO.
2. Preparation of Intermediate Plate
500 nL, i.e., 0.5 μL of the diluted compound (or DMSO) in the 200× compound plate was transferred into the corresponding position of V-bottom 384-well plate with Echo. 20 μL of medium was added to each well, centrifuged, shaken and evenly mixed. The concentration of the drugs in each well of the 2nd to 11th column of intermediate plate (i.e., 5× compound plate) were shown in following Table 4.
3.1 The cell plate was taken out from the incubator and observed under a microscope. The diluted compound or DMSO in the intermediate plate was added to the cell plate in 10 μL/well in the corresponding cell plate, and 40 μL of medium was pre-filled in each well.
3.2 The cells were incubated at 37° C. under 5% CO2 for 4 hours.
4.1 1 mM CCF4-AM, solution B, Solution C, and Solution D were used to prepare an appropriate amount of 6× detection solution. The LiveBLAzer™-FRET B/G Loading kit (K1095, Thermo Fisher, Waltham, Massachusetts, USA) kit containing CCF-4AM and solutionB, solutionC, and solutionD was also purchased from invitrogen (K1157, Thermo Fisher, Waltham, Massachusetts, USA).
4.2 The cells were observed under a microscope and the cell plate was equilibrated to room temperature.
4.3 6 μL of CCF-4AM dissolved solution A, 60 μL of solution B, 904 μL of solution C and 30 μL of solution D were pipetted in an EP tube, blown, and evenly mixed to obtain a 6× detection solution. The prepared 6× detection solution was pipetted to a 384-well plate in 10 μL/well.
Work on `CC(C)C[C@@H](C(=O)N1CCC[C@H]1C(=O)N[C@H](CO)C(=O)N[C@@H](CCC(N)=O)C(=O)N[C@@H](Cc1cccc2ccccc12)C(=O)N[C@H](C)C(=O)N1Cc2ccccc2C[C@H]1C(=O)N[C@@H](CO)C(=O)O)N(C)C(=O)[C@H](Cc1ccccc1)NC(=O)[C@H](N)Cc1ccc(O)cc1` [YW-165, (D-Tyr)-Phe-(NMe-Leu)-Pro-(D-Ser)-Gln-1Nal-(D-Ala)-Tic-Ser-OH] (H-[dY]F[NMeL]P[dS]Q[1Nal][dA][Tic]S-OH) yielded an EC50 of 1.5 nM. With `CC(C)C[C@@H](C(=O)N1CCC[C@H]1C(=O)N[C@H](CO)C(=O)N[C@@H](CCC(N)=O)C(=O)N[C@@H](Cc1ccc2ccccc2c1)C(=O)N[C@H](C)C(=O)N1Cc2ccccc2C[C@H]1C(=O)N[C@@H](CO)C(=O)O)N(C)C(=O)[C@H](Cc1ccccc1)NC(=O)[C@H](N)Cc1ccc(O)cc1` [YW-164, (D-Tyr)-Phe-(NMe-Leu)-Pro-(D-Ser)-Gln-2Nal-(D-Ala)-Tic-Ser-OH] (H-[dY]F[NMeL]P[dS]Q[2Nal][dA][Tic]S-OH) the EC50 was 1.1 nM. For `CC(C)C[C@H](NC(=O)[C@H](Cc1ccccc1)NC(=O)[C@@H](Cc1ccc(O)cc1)NC(=O)Cc1ccc(-c2ccccc2)cc1)C(=O)N1CCC[C@H]1C(=O)N[C@H](CO)C(=O)N[C@@H](CCC(N)=O)C(=O)N[C@@H](Cc1ccccc1)C(=O)N[C@H](C)C(=O)N1Cc2ccccc2C[C@H]1C(=O)N[C@@H](CO)C(=O)O` [YW-77, 4-biphenylacetyl-(D-Tyr)-Phe-Leu-Pro-(D-Ser)-Gln-Phe-(D-Ala)-Tic-Ser-OH] ({Phenylacetyl(4-Ph)}-[dY]FLP[dS]QF[dA][Tic]S-OH), the EC50 was 53 nM.

Same assay, conditions: determination by the method of Effect Embodiment 1; read-out: EC50
`CCN(C(=O)[C@H](Cc1ccccc1)NC(=O)[C@H](N)Cc1ccc(O)cc1)[C@@H](CC(C)C)C(=O)N1CCC[C@H]1C(=O)N[C@H](CO)C(=O)N[C@@H](CCC(N)=O)C(=O)N[C@@H](Cc1ccccc1)C(=O)N[C@H](C)C(=O)N1Cc2ccccc2C[C@H]1C(=O)N[C@@H](CO)C(=O)O` [YW-183, (D-Tyr)-Phe-(NEt-Leu)-Pro-(D-Ser)-Gln-Phe-(D-Ala)-Tic-Ser] (H-[dY]F[NEtLeu]P[dS]QF[dA][Tic]S-OH) showed an EC50 of 9.2 nM. `CC(C)C[C@@H](C(=O)N1CCC[C@H]1C(=O)N[C@@H](C(=O)N[C@@H](CCC(N)=O)C(=O)N[C@@H](Cc1ccccc1)C(=O)N[C@H](C)C(=O)N1Cc2ccccc2C[C@H]1C(=O)N[C@@H](CO)C(=O)O)[C@H](C)O)N(C)C(=O)[C@H](Cc1ccccc1)NC(=O)[C@H](N)Cc1ccc(O)cc1` [YW-204, (D-Tyr)-Phe-(NMe-Leu)-Pro-(D-Thr)-Gln-Phe-(D-Ala)-Tic-Ser] (H-[dY]F[NMeL]P[dT]QF[dA][Tic]S-OH; N-terminus assumed) was tested, and the EC50 was 62 nM. Compound `CCN(C(=O)[C@H](Cc1ccccc1)NC(=O)[C@@H](Cc1ccc(O)cc1)NC(=O)CCc1ccccc1)[C@@H](CC(C)C)C(=O)N1CCC[C@H]1C(=O)N[C@H](CO)C(=O)N[C@@H](CCC(N)=O)C(=O)N[C@@H](Cc1ccccc1)C(=O)N[C@H](C)C(=O)N1Cc2ccccc2C[C@H]1C(=O)N[C@@H](CO)C(=O)O` [YW-185, 3-Phenylpropanoyl-(D-Tyr)-Phe-(NEt-Leu)-Pro-(D-Ser)-Gln-Phe-(D-Ala)-Tic-Ser] (Hydrocinnamoyl-[dY]F[NEtLeu]P[dS]QF[dA][Tic]S-OH) has an EC50 of 5.9 nM. Work on `CC(C)C[C@H](NC(=O)[C@H](Cc1ccccc1)NC(=O)[C@@H](Cc1ccc(O)cc1)NC(=O)c1cccc(O)c1O)C(=O)N1CCC[C@H]1C(=O)N[C@H](CO)C(=O)N[C@@H](CCC(N)=O)C(=O)N[C@@H](Cc1ccccc1)C(=O)N[C@H](C)C(=O)N1Cc2ccccc2C[C@H]1C(=O)N[C@@H](CO)C(=O)O` [YW-127, 2,3-dihydroxybenzoyl-(D-Tyr)-Phe-Leu-Pro-(D-Ser)-Gln-Phe-(D-Ala)-Tic-Ser-OH] ({Benzoyl(2,3-diOH)}-[dY]FLP[dS]QF[dA][Tic]S-OH) yielded an EC50 of 10 nM. `CC(C)C[C@@H](C(=O)N1CCC[C@H]1C(=O)N[C@H](CO)C(=O)N[C@@H](CCC(N)=O)C(=O)N[C@@H](Cc1ccccc1)C(=O)N[C@H](C)C(=O)N1Cc2ccccc2C[C@H]1C(=O)N(CCO)CC(=O)O)N(C)C(=O)[C@H](Cc1ccccc1)NC(=O)[C@H](N)Cc1ccc(O)cc1` [YW-172, (D-Tyr)-Phe-(NMe-Leu)-Pro-(D-Ser)-Gln-Phe-(D-Ala)-Tic-NHoSer-OH] (H-[dY]F[NMeL]P[dS]QF[dA][Tic][Gly(N-CH2CH2OH)]-OH) gave an EC50 of 5.8 nM. Compound `CC(C)C[C@@H](C(=O)N1CCC[C@H]1C(=O)N[C@H](CCO)C(=O)N[C@@H](CCC(N)=O)C(=O)N[C@@H](Cc1ccccc1)C(=O)N[C@H](C)C(=O)N1Cc2ccccc2C[C@H]1C(=O)N[C@@H](CO)C(=O)O)N(C)C(=O)[C@H](Cc1ccccc1)NC(=O)[C@H](N)Cc1ccc(O)cc1` [YW-175, (D-Tyr)-Phe-(NMe-Leu)-Pro-(D-HoSer)-Gln-Phe-(D-Ala)-Tic-Ser-OH] (H-[dY]F[NMeL]P[d(hSer)]QF[dA][Tic]S-OH; N-terminus assumed) has an EC50 of 91 nM. `CC(C)C[C@H](NC(=O)[C@H](Cc1ccccc1)NC(=O)[C@H](N)Cc1ccc(O)cc1)C(=O)N1CCC[C@H]1C(=O)N[C@H](CO)C(=O)N[C@@H](CCC(N)=O)C(=O)N[C@@H](Cc1ccccc1)C(=O)N[C@H](C)C(=O)N1Cc2ccccc2C[C@@H]1C(=O)N[C@@H](CO)C(=O)O` [YW-149, (D-Tyr)-Phe-Leu-Pro-(D-Ser)-Gln-Phe-(D-Ala)-D-Tic-Ser-OH] (H-[dY]FLP[dS]QF[dA][dTic]S-OH) showed an EC50 of 21 nM. Compound `CCCCCCCCCCCC(=O)NCCOCCOCCOCCOCCOCCOCCOCCOCCC(=O)NCCC(=O)NCCC(=O)N(C)[C@H](Cc1ccc(O)cc1)C(=O)N[C@@H](Cc1ccccc1)C(=O)N(C)[C@@H](CC(C)C)C(=O)N1CCC[C@H]1C(=O)N[C@H](CO)C(=O)N[C@@H](CCC(N)=O)C(=O)N[C@@H](Cc1ccc2ccccc2c1)C(=O)N[C@H](C)C(=O)N1Cc2ccccc2C[C@H]1C(=O)N(C)[C@@H](CO)C(=O)O` [YW-181, Dodecanoyl-PEG8-βAla-βAla-(NMe-D-Tyr)-Phe-(NMe-Leu)-Pro-(D-Ser)-Gln-2Nal-(D-Ala)-Tic-(NMe-Ser)] ({Lauroyl-PEG8-βAla-βAla}-[dNMeY]F[NMeL]P[dS]Q[2Nal][dA][Tic][NMeS]-OH) has an EC50 of 2.2 nM. Work on `CCCN(C(=O)[C@H](Cc1ccccc1)NC(=O)[C@H](N)Cc1ccc(O)cc1)[C@@H](CC(C)C)C(=O)N1CCC[C@H]1C(=O)N[C@H](CO)C(=O)N[C@@H](CCC(N)=O)C(=O)N[C@@H](Cc1ccccc1)C(=O)N[C@H](C)C(=O)N1Cc2ccccc2C[C@H]1C(=O)N[C@@H](CO)C(=O)O` [YW-184, (D-Tyr)-Phe-(NPr-Leu)-Pro-(D-Ser)-Gln-Phe-(D-Ala)-Tic-Ser] (H-[dY]F[X6]P[dS]QF[dA][Tic]S-OH) yielded an EC50 of 16 nM.
